Experimental data published in patent US11331299B2, “Medicinal use of serrulatane diterpenes” (The University of Sydney, priority 2016, dated 2022).
Where two headings read alike, the source gives them in different places.

Test system: 280 human cancer cell lines
Experiment: OncoPanel cell proliferation assay (10-day)
Assay type: cell-based
Conditions: Homo sapiens; for GI50: read-out: Cell Count GI50; for IC50: read-out: Cell Count IC50; for EC50: read-out: Cell Count EC50
[1] = SJRH30, SJRH30, Soft Tissue - Sarcoma
[2] = SJSA-1, SJSA1, Soft Tissue - Osteosarcoma
[3] = SK-LMS-1, SK-LMS-1, Soft Tissue - Sarcoma
[4] = SK-MEL3, SK-MEL-3, Skin (Melanoma)
[5] = SK-MEL-1, SK-MEL-1, Skin (Melanoma)
[6] = SK-MEL-28, SK-MEL-28, Skin (Melanoma)
[7] = SK-OV-3, SKOV3, Female GU - Ovary
[8] = SK-UT-1, SK-UT-1, Soft Tissue - Sarcoma
[9] = SW579, SW579, Endocrine - Thyroid
[10] = SW684, SW684, Soft Tissue - Sarcoma

Question: What does the source list for `CC(C)=CCC[C@H](CO)[C@@H]1CC[C@@H](C)c2c1cc(C)c(O)c2O` [Compound 1, 7,8,18-trihydroxyserrulat-14-ene]?
Answer: GI50 (SH-4, Skin (Melanoma)): 1.94 µM; IC50 (SH-4, Skin (Melanoma)): 1.95 µM; EC50 (SHP77, SHP-77, Lung - SCLC): 0.89 µM; GI50 (SHP77, SHP-77, Lung - SCLC): 0.89 µM; IC50 (SHP77, SHP-77, Lung - SCLC): 0.9 µM; EC50 [1]: 1.42 µM; GI50 [1]: 1.41 µM; IC50 [1]: 1.42 µM; EC50 [2]: 1.41 µM; GI50 [2]: 1.41 µM; IC50 [2]: 1.41 µM; EC50 (SK-BR-3, SK-BR-3, Breast): 1.79 µM; GI50 (SK-BR-3, SK-BR-3, Breast): 1.76 µM; IC50 (SK-BR-3, SK-BR-3, Breast): 1.8 µM; EC50 [3]: 1.57 µM; GI50 [3]: 1.56 µM; IC50 [3]: 1.57 µM; EC50 [4]: 4.37 µM; GI50 [4]: 4.28 µM; IC50 [4]: 4.38 µM; EC50 [5]: 4.29 µM; GI50 [5]: 4.11 µM; IC50 [5]: 4.41 µM; EC50 [6]: 1.54 µM; GI50 [6]: 1.53 µM; IC50 [6]: 1.54 µM; EC50 (SK-MES-1, SKMES1, Lung - NSCLC): 1.06 µM; GI50 (SK-MES-1, SKMES1, Lung - NSCLC): 1.06 µM; IC50 (SK-MES-1, SKMES1, Lung - NSCLC): 1.06 µM; EC50 (SK-N-AS, CNS - Neuroblastoma): 3.58 µM; GI50 (SK-N-AS, CNS - Neuroblastoma): 3.54 µM; IC50 (SK-N-AS, CNS - Neuroblastoma): 3.58 µM; EC50 (SK-N-DZ, CNS - Neuroblastoma): 3.16 µM; GI50 (SK-N-DZ, CNS - Neuroblastoma): 2.94 µM; IC50 (SK-N-DZ, CNS - Neuroblastoma): 3.16 µM; EC50 (SK-N-FI, CNS - Neuroblastoma): 7.31 µM; GI50 (SK-N-FI, CNS - Neuroblastoma): 6.32 µM; IC50 (SK-N-FI, CNS - Neuroblastoma): 7.31 µM; EC50 [7]: 1.58 µM; GI50 [7]: 1.56 µM; IC50 [7]: 1.58 µM; EC50 (SK-PN-DW, Stomach): 4.66 µM; GI50 (SK-PN-DW, Stomach): 4.63 µM; IC50 (SK-PN-DW, Stomach): 4.66 µM; EC50 [8]: 2.23 µM; GI50 [8]: 2.22 µM; IC50 [8]: 2.23 µM; EC50 (SKO-007, SKO-007, Myeloma): 0.99 µM; GI50 (SKO-007, SKO-007, Myeloma): 0.93 µM; IC50 (SKO-007, SKO-007, Myeloma): 0.99 µM; EC50 (SNB-19, SNB-19, CNS - Glioma): 1.66 µM; GI50 (SNB-19, SNB-19, CNS - Glioma): 1.65 µM; IC50 (SNB-19, SNB-19, CNS - Glioma): 1.66 µM; EC50 (SNU1, SNU-1, Stomach): 1.25 µM; GI50 (SNU1, SNU-1, Stomach): 1.25 µM; IC50 (SNU1, SNU-1, Stomach): 1.25 µM; EC50 (SNU-5, SNU-5, Stomach): 3.92 µM; GI50 (SNU-5, SNU-5, Stomach): 3.87 µM; IC50 (SNU-5, SNU-5, Stomach): 3.92 µM; EC50 (SNU-16, SNU-16, Stomach): 1.31 µM; GI50 (SNU-16, SNU-16, Stomach): 1.31 µM; IC50 (SNU-16, SNU-16, Stomach): 1.31 µM; EC50 (SNU-423, SNU-423, Liver): 1.48 µM; GI50 (SNU-423, SNU-423, Liver): 1.46 µM; IC50 (SNU-423, SNU-423, Liver): 1.49 µM; EC50 (SR, Lymphoma): 3.8 µM; GI50 (SR, Lymphoma): 3.8 µM; IC50 (SR, Lymphoma): 3.8 µM; EC50 (ST486, ST486, Lymphoma): 1.09 µM; GI50 (ST486, ST486, Lymphoma): 1.08 µM; IC50 (ST486, ST486, Lymphoma): 1.09 µM; EC50 (SU-DHL10, SU-DHL-10, Lymphoma): 3.94 µM; GI50 (SU-DHL10, SU-DHL-10, Lymphoma): 3.93 µM; IC50 (SU-DHL10, SU-DHL-10, Lymphoma): 3.94 µM; EC50 (SU-DHL-4, SU-DHL-4, Lymphoma): 2.01 µM; GI50 (SU-DHL-4, SU-DHL-4, Lymphoma): 2.01 µM; IC50 (SU-DHL-4, SU-DHL-4, Lymphoma): 2.01 µM; EC50 (SU-DHL-5, SU-DHL-5, Lymphoma): 1.2 µM; GI50 (SU-DHL-5, SU-DHL-5, Lymphoma): 1.19 µM; IC50 (SU-DHL-5, SU-DHL-5, Lymphoma): 1.2 µM; EC50 (SU-DHL-8, SU-DHL-8, Lymphoma): 1.77 µM; GI50 (SU-DHL-8, SU-DHL-8, Lymphoma): 1.77 µM; IC50 (SU-DHL-8, SU-DHL-8, Lymphoma): 1.77 µM; EC50 (SU.86.86, SU.86.86, Pancreas): 7.61 µM; GI50 (SU.86.86, SU.86.86, Pancreas): 7.58 µM; IC50 (SU.86.86, SU.86.86, Pancreas): 7.63 µM; EC50 (SUP-T1, SUP-T1, Lymphoma): 3.96 µM; GI50 (SUP-T1, SUP-T1, Lymphoma): 3.95 µM; IC50 (SUP-T1, SUP-T1, Lymphoma): 3.96 µM; EC50 (SW48, SW48, Colon): 1.33 µM; GI50 (SW48, SW48, Colon): 1.32 µM; IC50 (SW48, SW48, Colon): 1.33 µM; EC50 [9]: 1.71 µM; GI50 [9]: 1.69 µM; IC50 [9]: 1.71 µM; EC50 [10]: 9.37 µM; GI50 [10]: 8.28 µM; IC50 [10]: 9.37 µM; EC50 (SW837, SW837, Colon): 2.35 µM; GI50 (SW837, SW837, Colon): 2.33 µM; IC50 (SW837, SW837, Colon): 2.37 µM
